This note sets out measurements from PMC10815831, “Comparison of Nuclear Medicine Therapeutics Targeting PSMA among Alpha-Emitting Nuclides” (International Journal of Molecular Sciences, 2024).

In test [1] the target is T1, prostate specific membrane antigen (PSMA) (Homo sapiens, UniProt Q04609).
T1 construct: gene FOLH1
The test is described as follows: radioligand uptake in LNCaP (PSMA-high) cells, competition by unlabeled PSMA-617; PC3 (PSMA-low) as control. The test is classed as cell-based.

The target of test [2] is T1, prostate specific membrane antigen (PSMA). The test is described as follows: radioligand uptake in LNCaP (PSMA-high) cells, competition by unlabeled compound; PC3 (PSMA-low) as control. The test is classed as cell-based.

T1 sequence (Q04609 whole entry): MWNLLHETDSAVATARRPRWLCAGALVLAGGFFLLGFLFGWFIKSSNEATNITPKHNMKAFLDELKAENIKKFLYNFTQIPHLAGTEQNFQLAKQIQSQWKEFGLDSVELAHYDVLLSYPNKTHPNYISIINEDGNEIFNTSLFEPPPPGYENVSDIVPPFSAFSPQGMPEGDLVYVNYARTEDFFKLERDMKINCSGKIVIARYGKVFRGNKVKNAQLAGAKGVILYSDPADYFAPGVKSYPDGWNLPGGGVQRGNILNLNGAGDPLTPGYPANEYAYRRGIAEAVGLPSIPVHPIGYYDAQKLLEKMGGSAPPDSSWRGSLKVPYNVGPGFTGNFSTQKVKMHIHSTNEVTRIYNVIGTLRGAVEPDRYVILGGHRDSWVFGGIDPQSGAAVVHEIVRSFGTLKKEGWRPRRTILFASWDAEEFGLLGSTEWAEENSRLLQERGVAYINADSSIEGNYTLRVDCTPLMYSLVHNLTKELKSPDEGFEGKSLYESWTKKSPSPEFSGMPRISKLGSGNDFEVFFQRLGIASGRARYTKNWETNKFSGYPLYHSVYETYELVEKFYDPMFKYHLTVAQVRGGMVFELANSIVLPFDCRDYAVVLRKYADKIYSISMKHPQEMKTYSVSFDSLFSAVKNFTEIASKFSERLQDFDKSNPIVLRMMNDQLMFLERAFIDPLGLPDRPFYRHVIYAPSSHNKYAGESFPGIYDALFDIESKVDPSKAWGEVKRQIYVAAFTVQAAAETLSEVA

`O=C([O-])CN1CCN(CC(=O)[O-])CCN(CC(=O)NCC2CCC(C(=O)NC(Cc3ccc4ccccc4c3)C(=O)NCCCC[C@H](NC(=O)N[C@@H](CCC(=O)O)C(=O)O)C(=O)O)CC2)CCN(CC(=O)[O-])CC1.[225Ac+3]` (some centres unmarked) [225Ac-PSMA-617] displayed a half-maximal inhibitory concentration (IC50) in test [1] of 2.64 nM.
Take `O=C(O)CC[C@H](NC(=O)N[C@@H](CCCCNC(=O)[C@@H](Cc1ccc2ccccc2c1)NC(=O)c1ccc(CNC(=O)[C@@H](CCC(=O)O)NC(=O)[C@@H](CCC(=O)O)NC(=O)Cc2ccc([211At])cc2)cc1)C(=O)O)C(=O)O` [211At-PSMA-5]: the IC50 in test [2] was 0.32 nM.

By IC50 is commonly meant the concentration needed to halve the response being measured.
